One experiment concerns the target T1, 20S proteasome (Mus musculus, UniProt O55234).
T1 construct: 20S proteasome preparations from packed whole blood of mice; from tissue; host or cells: packed whole blood of mice (EDTA lysate supernatant)
Kind of experiment: Proteasome inhibition assay, compounds added directly to 20S proteasome preparation (LLVY-AMC cleavage). It counts as biochemical. The following applies: 20S proteasome preparations from packed whole blood of mice, FIG. 2A. On the procedure: If packed whole blood is used as a source for proteasomes, 1 ml blood collected in heparinized microtainer tubes is diluted 1:1 (v/v) with saline and centrifuged at 500×g (Sorvall RT 6000D, rotor H-1000B at 1500 rpm) for 5 min at room temperature. The supernatant is removed and the PWB pellet resuspended in 1 ml PBS and microcentrifuged at 6600×g (Eppendorf 5415C at 7000 rpm) for 10 min at room temperature. The supernatant is removed and the PWB pellet is then frozen at −70° C. prior to proteasome analysis.
To prepare the proteasomes, WBC or RBC or PWB 1:1 (v/v) are lysed using 5 mM EDTA, pH 8.0 for 30 min and centrifuged at 15,000×g (Eppendorf 5415C at 14,000 rpm) for 10 min at room temperature. The supernatant containing proteasomes is placed on ice and the protein concentration is determined. […]
(§1) For the assay, 50 μl sample—i.e., 20 proteasome; or standard; or ˜50 μg/μl WBC; or ˜500 μg/μl RBC or ˜1000 μg/μl PWB samples some containing test compounds is added to 50 μl substrate buffer (20 mM HEPES, 0.5 mM EDTA, 0.05% SDS, and 120 μM LLVY-AMC; pH 8.0) in a 96-well black fluorescence plate. The reaction is measured with a fluorescence spectrophotometer (excitation max.: 380 nm; emission max.: 440 nm, and velocity of reaction determined. As shown, the substrate is Leu-Leu-Val-Tyr-AMC. AMC is amido-4-methylcoumarin. […]

In experiment [1] the target is T2, proteasomes of red blood cells (Mus musculus, UniProt O55234).
T2 construct: endogenous in cells; host or cells: red blood cells
Put plainly: Proteasome inhibition assay, red blood cells treated with compounds, then proteasomes isolated and protease activity assessed. The experiment is classed as cell-based. The following applies: red blood cells treated first, then proteasomes isolated; OSA compared with isoginkgetin; FIG. 2B. On the procedure: If RBC are used, the RBC pellet obtained in the process of obtaining WBC described above is recovered and washed with 3 ml PBS, then centrifuged at 500×g (Sorvall RT 6000D, rotor H-1000B at 1500 rpm) for 5 min at room temperature. The supernatant is removed and the RBC pellet resuspended in 1 ml PBS and microcentrifuged at 6600×g (Eppendorf 5415C at 7000 rpm) for 10 min at room temperature. The supernatant is again removed and the RBC pellet is then frozen at −70° C. prior to proteasome analysis.
To prepare the proteasomes, WBC or RBC or PWB 1:1 (v/v) are lysed using 5 mM EDTA, pH 8.0 for 30 min and centrifuged at 15,000×g (Eppendorf 5415C at 14,000 rpm) for 10 min at room temperature. The supernatant containing proteasomes is placed on ice and the protein concentration is determined.
as §1

For another experiment, the system named is C57 male black mice. Kind of experiment: Stimulation of hair growth on shaved dorsal trunk, topical application. The experiment is classed as in vivo. To be noted: 5 days, 1% OSA (100 μl) or 10% isoginkgetin (50 μl), after 17 days and 26 days, FIGS. 3A and 3B. Here is the method:
C57 male black mice, 8 weeks old, were acclimated for 7 days in individual cages and fed standard diets and water ad libitum. The mice were anesthetized prior to manipulation. The dorsal trunk of each mouse was shaved and then treated topically starting the following day with a 1.0% solution of OSA (100 μl) which was applied for each of 5 days. A similar protocol was followed using 50 μl solution of isoginkgetin at percentages of 1, 5 and 10% wt/wt. The progression of hair growth is monitored visually and photographed.
FIGS. 3A and 3B show the results for 1% OSA or 10% isoginkgetin after 17 days and 26 days respectively.

The values that follow come from patent US7678395B2, “Stimulation of hair growth by isoginkgetin” (Osteoscreen, Inc., priority 2003, dated 2010).

Structures are written as SMILES. Where a SMILES comes first, the peptide text is derived from it. The star is where a group is joined. Cbz = O=C(OCc1ccccc1)*; OtBu = CC(C)(C)O*

Consider `CC[C@H](C)[C@H](NC(=O)OCc1ccccc1)C(=O)N[C@@H](CCC(=O)OC(C)(C)C)C(=O)N[C@@H](C)C(=O)N[C@H](C=O)CC(C)C` [OSA] (Cbz-IE(OtBu)AL-aldehyde), for which the “inhibition of the Vmax of the proteolytic cleavage of the LLVY-AMC substrate” value against 20S proteasome is “similarly inhibit the Vmax”. Besides, the “proteasome inhibition when red blood cells are treated with the compounds” value in experiment [1] was “more effective”. Further, the “growth of hair in the dorsal area as compared to control” value with C57 male black mice was “stimulate the growth of hair”.
